Source: ChEMBL document CHEMBL2375347, “Discovery of adamantane based highly potent HDAC inhibitors” (Bioorg Med Chem Lett, 2013)

Legend:
U-251 = assay: Cytotoxicity against human U251 cells by MTT assay; assay type: functional
NCI-H460 [1] = assay: Cytotoxicity against human NCI-H460 cells by MTT assay; assay type: functional
HCT-116 = assay: Cytotoxicity against human HCT116 cells by MTT assay; assay type: functional
[2] = Inhibition of mouse liver HDAC by fluorescence assay
Mus musculus = assay: Toxicity in SCID mouse xenografted with human NCI-H460 cells assessed as loss in body weight at 5 mg/kg, ip qd for 21 days relative to control; assay type: organism-based; design: dose 5 mg/kg, route intraperitoneal; conditions: in vivo, 504 h
NCI-H460 [3] = assay: Antitumor activity against human NCI-H460 cells xenografted in SCID mouse assessed as tumor growth inhibition at 5 mg/kg, ip qd for 21 days; assay type: functional; conditions: 504 h, route intraperitoneal, read-out: TGI
[4] = Toxicity in SCID mouse xenografted with human NCI-H460 cells; assay type: organism-based; conditions: in vivo

| Structure (SMILES) | GI50 (U-251) [nM] | GI50 (NCI-H460 [1]) [nM] | GI50 (HCT-116) [nM] | IC50 [2] [nM] | Activity (Mus musculus) [%] | inhibition in vivo at 5 mg/kg (NCI-H460 [3]) [%] | MTD [4] [mg/kg] |
| --- | --- | --- | --- | --- | --- | --- | --- |
| O=C(/C=C/c1ccc(CNC23CC4CC(CC(Cl)(C4)C2)C3)cc1)NO | 14000 | 4000 | 11000 | 40 |  |  |  |
| O=C(/C=C/c1ccc(CNC(=O)C23CC4CC(CC(C4)C2)C3)cc1)NO | 170 | 100 | 100 | 67 |  |  |  |
| O=C(/C=C/c1ccc(CNCC23CC4CC(CC(C4)C2)C3)cc1)NO | 800 | 300 | 500 | 1.1 |  |  |  |
| O=C(/C=C/c1ccc(CNC(=O)C23CC4CC(CC(F)(C4)C2)C3)cc1)NO | 1900 | 500 | 500 | 77 |  |  |  |
| O=C(/C=C/c1ccc(CNCC23CC4CC(CC(F)(C4)C2)C3)cc1)NO | 180 | 30 | 30 | 6 |  |  |  |
| O=C(/C=C/c1ccc(CNC(=O)CC23CC4CC(CC(C4)C2)C3)cc1)NO | 1600 | 1300 | 1100 | 1.8 |  |  |  |
| O=C(/C=C/c1ccc(CNCCC23CC4CC(CC(C4)C2)C3)cc1)NO | 1300 | 1100 | 450 | 0.9 |  |  |  |
| O=C(/C=C/c1ccc(CNC2C3CC4CC(C3)CC2C4)cc1)NO (stereo unspecified) | 170 | 70 | 80 | 60 |  |  |  |
| O=C(/C=C/c1ccc(CNC(=O)CC2C3CC4CC(C3)CC2C4)cc1)NO (stereo unspecified) | 260 | 400 | 500 | 8 |  |  |  |
| O=C(/C=C/c1ccc(CNCCC2C3CC4CC(C3)CC2C4)cc1)NO (stereo unspecified) | 50 | 10 | 60 | 0.28 |  |  |  |
| O=C(/C=C/c1ccc(CN2CC3CC4CC(C3)CC2C4)cc1)NO | 1700 | 4900 | 1800 | 110 |  |  |  |
| O=C(/C=C/c1ccc(CNC(=O)C23CC4CC(CC2C4)C3)cc1)NO | 600 | 350 | 380 | 25 |  |  |  |
| O=C(/C=C/c1ccc(CNCC23CC4CC(CC2C4)C3)cc1)NO | 30 | 10 | 10 | 0.02 | < 10 | 45 | 7.5 |
| CC(NCc1ccc(/C=C/C(=O)NO)cc1)C12CC3CC(CC1C3)C2 (stereo unspecified) | 50 | 30 | 30 | 0.03 |  |  |  |
| O=C(/C=C/c1ccc(CNC23CC4CC(CC(C4)C2)C3)cc1)NO | 2700 | 2800 | 500 | 70 |  |  |  |
| CCOC12CC3CC(CC(NCc4ccc(/C=C/C(=O)NO)cc4)(C3)C1)C2 | 2800 | 6000 | 1000 | 460 |  |  |  |
| COC12CC3CC(CC(NCc4ccc(/C=C/C(=O)NO)cc4)(C3)C1)C2 | 7000 | 7000 | 1600 | 260 |  |  |  |
| O=C(/C=C/c1ccc(CNC23CC4CC(CC(O)(C4)C2)C3)cc1)NO | 4200 | 8000 | 3000 | 250 |  |  |  |
| O=C(/C=C/c1ccc(CNC23CC4CC(CC(CO)(C4)C2)C3)cc1)NO | 6000 | 9500 | 2800 | 240 |  |  |  |
| O=C(/C=C/c1ccc(CNC23CC4CC(C2)CC(c2ccccc2)(C4)C3)cc1)NO | 3200 | 5000 | 2200 | 440 |  |  |  |
| O=C(CCCCCCC(=O)Nc1ccccc1)NO [VORINOSTAT] | 2000 | 1000 | 1000 |  |  |  |  |
